From patent US8362256B2, “Salts of N-[4-(1-cyanocyclopentyl)phenyl]-2-(4-pyridylmethyl)amino-3-pyridinecarboxamide” (Jiangsu Hengrui Medicine Co. Ltd., priority 2008, dated 2013)
Marks after values point to notes of the source that are not given here.

Legend:
Solubility = assay type: physicochemical
human colon cancer HT-29 = test: Efficacy on human colon cancer HT-29 transplanted in nude mice; conditions: for Weight after Removing Tumor, d0 / TV x ± SD, d0: d0 baseline; for RTV x ± SD / T/C / TV x ± SD, dn: dn 21 days; for Weight after Removing Tumor, dn: dn 21 days after first administration
Description: BALB/cA-nude mice, ♀, 5-6 weeks-old, purchased from Shanghai Slaccas experimental animals limited liability company. […] Rearing environment: SPF grade.
After one week adaption, the experimental animals were subcutaneously inoculated with human colon cancer HT-29 tumor tissues. When the tumors grew to 100-300 mm^3, the animals were randomly divided into several groups. […] Volume of tumors and weight of mice were measured 2-3 times every week, the data of which were recorded. The equation for the calculation of volume of tumors (V) is: V=½×a×b^2 wherein a, b represent length and width, respectively.

[1] = 50 mg/kg p.o. once daily d0-d20
[2] = 100 mg/kg p.o. once daily d0-d20
[3] = 200 mg/kg p.o. once daily d0-d20

N#CC1(c2ccc(NC(=O)c3cccnc3NCc3ccncc3)cc2)CCCC1 [Mesylate of compound A]
Solubility in water (Solubility): Insoluble | Weight after Removing Tumor, d0 (human colon cancer HT-29; [1]): 16.1 g | RTV x ± SD (human colon cancer HT-29; [1]): 5.42 ± 1.55 | T/C (human colon cancer HT-29; [1]): 62.5% | TV x ± SD, dn (human colon cancer HT-29; [1]): 1250 ± 256 | Weight after Removing Tumor, dn (human colon cancer HT-29; [1]): 14.3 g | TV x ± SD, d0 (human colon cancer HT-29; 50 mg/kg p.o.): 239 ± 49 | Weight after Removing Tumor, d0 (human colon cancer HT-29; [2]): 17.0 g | RTV x ± SD (human colon cancer HT-29; [2]): 3.78 ± 1.46 | T/C (human colon cancer HT-29; [2]): 43.6^a % | TV x ± SD, dn (human colon cancer HT-29; [2]): 998 ± 296 | Weight after Removing Tumor, dn (human colon cancer HT-29; [2]): 16.4 g | TV x ± SD, d0 (human colon cancer HT-29; 100 mg/kg p.o.): 272 ± 37 | Weight after Removing Tumor, d0 (human colon cancer HT-29; [3]): 16.3 g | RTV x ± SD (human colon cancer HT-29; [3]): 2.21 ± 0.52 | T/C (human colon cancer HT-29; [3]): 25.5^a % | TV x ± SD, dn (human colon cancer HT-29; [3]): 571 ± 147 | Weight after Removing Tumor, dn (human colon cancer HT-29; [3]): 15.6 g | T/C (human colon cancer HT-29; 200 mg/kg p.o. once daily d0-d20, listed as mesylate of compound A): 25.5% | TV x ± SD, d0 (human colon cancer HT-29; 200 mg/kg p.o.): 260 ± 39 | tolerance (human colon cancer HT-29; mouse, in vivo, po): well tolerated
